The subject of the experiment is fatty liver of the SD rats. In words: Pathological sections and grading of fatty liver of SD rats. The class given is in vivo. Conditions: compounds 80 mg/kg, Sim 10 mg/kg, OCA 10 mg/kg. On the procedure:
500 g of lard oil was taken, placed in a container, and heated to melt. When the temperature rose to 100° C., it was added with 200 g of cholesterol to dissolve completely, and then further added with 20 g of propylthiouracil. The resulted mixture was stirred well, and added with 500 ml of Tween 80 after dissolution, resulting in an oil phase. At the same time, 600 mL of distilled water and 400 mL of 1,2-propanediol were taken and heated to 60° C. in a water bath, then were added with 40 g of sodium deoxycholate. The resulted mixture was stirred well until realizing complete dissolution, so as to give an aqueous phase. The aqueous phase was added into the oil phase and mixed well to give a lipid emulsion. The lipid emulsion was heated in a water bath of 37° C. before intragastric administration to animals.
An appropriate amount of pharmaceutical was weighed, added with 0.5% CMC-Na, and mixed homogeneously by grinding. There are groups for Compound 01 (80 mg/kg), Compound 02 (80 mg/kg), Compound 03 (80 mg/kg), Compound 04 (80 mg/kg), Compound 05 (80 mg/kg), Compound 06 (80 mg)/kg), Compound 07 (80 mg/kg), Compound 08 (80 mg/kg), Compound 09 (80 mg/kg), Compound 10 (80 mg/kg), Compound 11 (80 mg/kg), Compound 12 (80 mg/kg), Compound 13 (80 mg/kg), Compound 14 (80 mg/kg), Compound 15 (80 mg/kg), Compound 16 (80 mg/kg), Compound 17 (80 mg/kg), Compound 18 (80 mg/kg), Compound 19 (80 mg/kg), Compound 20 (80 mg/kg), Compound 21 (80 mg/kg), and Compound 22 (80 mg/kg).
Male SD rats weighing 180-200 g were fed adaptively for 7 days. Based on body weight, 10 animals were used as control and the remaining animals were intragastrically administered with the lipid emulsion every day, 1 ml/100 g body weight for 14 days. After fasting for 12 hours, 1 mL of blood was collected from the orbits of the animals, and was determined by Hitachi Automatic Biochemical Analyzer 7080 for serum cholesterol (CHO), triglyceride (TG), low density lipoprotein (LDL-C) and high density lipoprotein (HDL-C).
The modeled rats were continued with the intragastric administration of the lipid emulsion. At the same time, the pharmaceutical-administered groups were administrated with a corresponding dose of pharmaceuticals, while the Model group was administrated with an equal volume of solvent. The pharmaceutical-administered groups were administrated with the lipid emulsion in the morning, and with the pharmaceuticals in the afternoon. The animals were measured for the body weight once a week, and were observed. After 14 days of continuous administration, 1 mL of blood was collected from the orbits, and was determined for the contents of triglyceride, cholesterol, low density lipoprotein and high density lipoprotein in blood serum.

14 compounds from patent US10647673B2, “Acetophenone compound, preparation method thereof, and application thereof in fatty liver prevention and treatment” (Nanjing Bioenergy Medicine Science & Technology Co., Ltd., priority 2017, dated 2020) can be followed below.

With `CC(=O)c1ccc(NC(=O)C(C)(C)Oc2ccc(Cl)cc2)c(O)c1` [Compound 19], the “Pathological grading: Steatotic hepatocytes” value (“Pathological grading” for short) is given as “++ (45-65% of hepatocytes undergoing steatosis)” (animal 1); “++ (45-65% of hepatocytes undergoing steatosis)” (animal 2); “++ (45-65% of hepatocytes undergoing steatosis)” (animal 3); “+++ (65-85% or more of hepatocytes undergoing steatosis)” (animal 4); “+ (25-45% of hepatocytes undergoing steatosis)” (animal 5).
Consider `CC(=O)c1ccc(O)c(CCCOC(=O)c2cccnc2)c1` [Compound 16], for which the “Pathological grading” value (animal 1) is recorded as “+ (25-45% of hepatocytes undergoing steatosis)”; the “Pathological grading” value (animal 2) is listed as “++ (45-65% of hepatocytes undergoing steatosis)”; the “Pathological grading” value (animal 3) is “+++ (65-85% or more of hepatocytes undergoing steatosis)”; the “Pathological grading” value (animal 4) was “++ (45-65% of hepatocytes undergoing steatosis)”; the “Pathological grading” value (animal 5) was “+ (25-45% of hepatocytes undergoing steatosis)”.
`Cc1ccc(C)c(OCCCC(C)(C)C(=O)NCC(=O)c2ccc(N)cc2)c1` [Compound 04]: the “Pathological grading” value is, setting by setting: (animal 1) “++ (45-65% of hepatocytes undergoing steatosis)”; (animal 2) “++ (45-65% of hepatocytes undergoing steatosis)”; (animal 3) “++ (45-65% of hepatocytes undergoing steatosis)”; (animal 4) “+++ (65-85% or more of hepatocytes undergoing steatosis)”; (animal 5) “++ (45-65% of hepatocytes undergoing steatosis)”.
`CC(=O)c1ccc(NC(=O)C(C)(C)CCCOc2cc(C)ccc2C)c(O)c1` [Compound 18]: the “Pathological grading” value is, setting by setting: (animal 1) “+ (25-45% of hepatocytes undergoing steatosis)”; (animal 2) “+ (25-45% of hepatocytes undergoing steatosis)”; (animal 3) “++ (45-65% of hepatocytes undergoing steatosis)”; (animal 4) “++ (45-65% of hepatocytes undergoing steatosis)”; (animal 5) “++ (45-65% of hepatocytes undergoing steatosis)”.
With `CC(=O)c1ccc(NC(=O)C(C)(C)Oc2ccc(C(=O)c3cccc(Cl)c3)cc2)cc1` [Compound 07], the “Pathological grading” value is, setting by setting: (animal 1) “++ (45-65% of hepatocytes undergoing steatosis)”; (animal 2) “++ (45-65% of hepatocytes undergoing steatosis)”; (animal 3) “++ (45-65% of hepatocytes undergoing steatosis)”; (animal 4) “++ (45-65% of hepatocytes undergoing steatosis)”; (animal 5) “+ (25-45% of hepatocytes undergoing steatosis)”.
Take `CC(=O)c1ccc(NC(=O)C(C)(C)Oc2ccc(C3CC3(Cl)Cl)cc2)cc1` (stereo not shown) [Compound 10]: the “Pathological grading” value runs as follows: (animal 1) “++ (45-65% of hepatocytes undergoing steatosis)”; (animal 2) “++ (45-65% of hepatocytes undergoing steatosis)”; (animal 3) “+ (25-45% of hepatocytes undergoing steatosis)”; (animal 4) “++ (45-65% of hepatocytes undergoing steatosis)”; (animal 5) “++ (45-65% of hepatocytes undergoing steatosis)”.
For the compound `Nc1ccc(C(=O)CNC(=O)c2cccnc2)cc1` [Compound 03], the “Pathological grading” value is recorded as “++ (45-65% of hepatocytes undergoing steatosis)” (animal 1); “+ (25-45% of hepatocytes undergoing steatosis)” (animal 2); “+++ (65-85% or more of hepatocytes undergoing steatosis)” (animal 3); “++ (45-65% of hepatocytes undergoing steatosis)” (animal 4); “++ (45-65% of hepatocytes undergoing steatosis)” (animal 5).
Turning to `CC(=O)c1ccc(NC(=O)c2cccnc2)cc1` [Compound 01], the “Pathological grading” value runs as follows: (animal 1) “++ (45-65% of hepatocytes undergoing steatosis)”; (animal 2) “++ (45-65% of hepatocytes undergoing steatosis)”; (animal 3) “++ (45-65% of hepatocytes undergoing steatosis)”; (animal 4) “++ (45-65% of hepatocytes undergoing steatosis)”; (animal 5) “++ (45-65% of hepatocytes undergoing steatosis)”.
As for `CC(=O)c1ccc(O)c(CCCOC(=O)C(C)(C)CCCOc2cc(C)ccc2C)c1` [Compound 15], the “Pathological grading” value runs as follows: (animal 1) “++ (45-65% of hepatocytes undergoing steatosis)”; (animal 2) “+++ (65-85% or more of hepatocytes undergoing steatosis)”; (animal 3) “++ (45-65% of hepatocytes undergoing steatosis)”; (animal 4) “++ (45-65% of hepatocytes undergoing steatosis)”; (animal 5) “++ (45-65% of hepatocytes undergoing steatosis)”.
For `CC(=O)c1ccc(NC(=O)C(C)(C)Oc2ccc(Cl)cc2)cc1` [Compound 08], the “Pathological grading” value runs as follows: (animal 1) “++ (45-65% of hepatocytes undergoing steatosis)”; (animal 2) “++ (45-65% of hepatocytes undergoing steatosis)”; (animal 3) “+ (25-45% of hepatocytes undergoing steatosis)”; (animal 4) “++ (45-65% of hepatocytes undergoing steatosis)”; (animal 5) “+ (25-45% of hepatocytes undergoing steatosis)”.
For the compound `CC(=O)c1ccc(NC(=O)c2cccnc2)c(O)c1` [Compound 20], the “Pathological grading” value runs as follows: (animal 1) “++ (45-65% of hepatocytes undergoing steatosis)”; (animal 2) “+++ (65-85% or more of hepatocytes undergoing steatosis)”; (animal 3) “++ (45-65% of hepatocytes undergoing steatosis)”; (animal 4) “++ (45-65% of hepatocytes undergoing steatosis)”; (animal 5) “++ (45-65% of hepatocytes undergoing steatosis)”.
For the compound `Cc1ccc(C)c(OCCCC(C)(C)C(=O)NCC(=O)c2ccc(NC(=O)c3cccnc3)cc2)c1` [Compound 11], the “Pathological grading” value reads like this: (animal 1) “+ (25-45% of hepatocytes undergoing steatosis)”; (animal 2) “++ (45-65% of hepatocytes undergoing steatosis)”; (animal 3) “++ (45-65% of hepatocytes undergoing steatosis)”; (animal 4) “++ (45-65% of hepatocytes undergoing steatosis)”; (animal 5) “+ (25-45% of hepatocytes undergoing steatosis)”.
As to `CC(C)(Oc1ccc(Cl)cc1)C(=O)Nc1ccc(C(=O)CNC(=O)c2cccnc2)cc1` [Compound 17], the “Pathological grading” value (animal 1) is “+ (25-45% of hepatocytes undergoing steatosis)”; the “Pathological grading” value (animal 2) is listed as “++ (45-65% of hepatocytes undergoing steatosis)”; the “Pathological grading” value (animal 3) is listed as “++ (45-65% of hepatocytes undergoing steatosis)”; the “Pathological grading” value (animal 4) was “++ (45-65% of hepatocytes undergoing steatosis)”; the “Pathological grading” value (animal 5) was “++ (45-65% of hepatocytes undergoing steatosis)”.
As to `CC(=O)c1ccc(O)c(NC(=O)C(C)(C)CCCOc2cc(C)ccc2C)c1` [Compound 05], the “Pathological grading” value is “+ (25-45% of hepatocytes undergoing steatosis)” (animal 1); “+++ (65-85% or more of hepatocytes undergoing steatosis)” (animal 2); “++ (45-65% of hepatocytes undergoing steatosis)” (animal 3); “++ (45-65% of hepatocytes undergoing steatosis)” (animal 4); “+ (25-45% of hepatocytes undergoing steatosis)” (animal 5).
